Molecules are shown by their SMILES. Where two headings read alike, the source gives them in different places.

Details of data set [1]: method as in PMID 18523925, PMID 29182349, PMID 31184894. The settings on record: compared with HO; cited from earlier work.
Data set [2] deals with HCT-116 (human colon cancer cell line). Put plainly: MTT assay, cytotoxicity against HCT-116. The following applies: read-out: IC50 HCT-116. In kind it is cell-based. How it is done: (§1) All the synthesized derivatives of HO were tested for their antiproliferative activity against four human cancer cell lines, including the HCT-116, A375, A-549, and Huh-7 cell lines, using the MTT assay. Cisplatin was used as a positive control, while lead compound HO (1) was also included in the study for comparison.
(§2) HCT-116 (Human colon cancer cell line), A375 (human melanoma cancer cell line), A-549 (human lung adenocarcinoma cell line), Huh-7 (human hepatoma cancer cell line), and L-02 (normal hepatic cell line) were purchased from the Cell Bank of Shanghai Institute of Biochemistry and Cell Biology, Chinese Academy of Sciences (Shanghai, China). The cells were cultured in Dulbecco’s modified Eagle medium (DMEM; NY, USA), which were all supplemented with 10% fetal bovine serum (FBS; NY, USA) at 37 °C with 5% CO2.
(§3) The cytotoxic activity was evaluated using the MTT assay. Briefly, cells were seeded in 96-well plates at a density of 5 × 10^3 cells/well in 100 μL of DMEM medium at 37 °C for 24 h. Stock solutions of test compounds were prepared in DMSO at concentration of 50 mM, and twofold serial dilution with a culture medium was performed to obtain appropriate concentrations right before the assay. After that, the cells were incubated with synthetic derivatives or cisplatin as a positive control at the various concentrations (0.78125-50 μM) for 48 h. Then, 20 μL of 3-(4,5-Dimethylthiazol-2-yl)-2,5-diphenyltetrazolium bromide (MTT, Aladdin, Shanghai, China) solution (5 mg/mL in PBS) was added, and then the cells were incubated at 37 °C for an additional 4 h. The supernatant was removed, and 150 μL of dimethyl sulfoxide was added to dissolve the MTT formazan. The optical density (OD) was measured on a microplate reader (SpectraMax Plus 384, Molecular Devices, Sunnyvale, CA, USA) at a wavelength of 570 nm. The cytotoxic activity was expressed as the IC50 values. The above tests were repeated three times in parallel. Vehicle DMSO (0.1%) was used as a negative control.
For orientation: Tetrazolium assays rely on reduction of a dye to a coloured formazan, in cell work by metabolically active cells.

In data set [3] the test system is human normal hepatic L-02 cells. Put plainly: MTT assay, cytotoxicity on normal L-02 cells. In kind it is cell-based. The following applies: for IC50: Homo sapiens, read-out: IC50 L-02; for SI (selectivity index): IC50 (L-02)/IC50 (Huh-7). How it is done:
The selectivity index is crucial for drug development, because it could mediate side effects, including tissues toxicity. Therefore, according to cytotoxic activity results, compounds 6 and 10 with potent cytotoxicity in Huh-7 cells were selected to investigate the selectivity between normal and cancer cells. These two compounds were tested on human normal hepatic L-02 cells with HO as control.
as §2, §3

Data set [4] concerns Huh-7 (human hepatoma cancer cell line). The data set can be described thus: MTT assay, cytotoxicity against Huh-7. In kind it is cell-based. The settings on record: read-out: IC50 Huh-7. How it is done:
as §1, §2, §3

Data set [5] relates to A-549 (human lung adenocarcinoma cell line). Put plainly: MTT assay, cytotoxicity against A549. The class given is cell-based. The settings on record: read-out: IC50 A549. How it is done:
as §1, §2, §3

The test system of data set [6] is A375 (human melanoma cancer cell line). The data set can be described thus: MTT assay, cytotoxicity against A375. The class given is cell-based. The settings on record: read-out: IC50 A375. How it is done:
as §1, §2, §3

For data set [7], the system named is HCT-116, A375, A549, and Huh-7 cells. The data set can be described thus: MTT assay, statements for the whole panel of tested cancer cells. In kind it is cell-based, human. The following applies: HCT-116, A375, A549, Huh-7; tested up to 50 μM. How it is done:
as §1, §2, §3

The mark [8] stands for this setting: Homo sapiens, HCT-116, 48 h, MTT, 48 h, HCT-116 cells.
Setting [9] is: L02, MTT, 48 h, normal hepatic L-02 cells.
Where [10] appears, read: Homo sapiens, Huh-7, 48 h, MTT, 48 h, Huh-7 cells.
[11] abbreviates: Homo sapiens, A549, 48 h, MTT, 48 h, A549 cells.
[12] abbreviates: Homo sapiens, A-375, 48 h, MTT, 48 h, A375 cells.

Regarding `CC1=C[C@@H](O)[C@H](O)[C@@]2(O)CCC34C(=O)OC5C6C3C2=C1[C@@H]6O[C@@H]5C4C` (stereo partly drawn) [fortalpinoid K], the “cytotoxic activities (result in words)” value in data set [1] is “losing of cytotoxic activities”.

For orientation: IC50 means the concentration that gives 50% inhibition. For the compound `Cc1cc(=O)cc2c3c1C1OC4C5OC(=O)C(C=C2)(C4C)C3C15` [Compound 6, (3R,4aR,10aS,11S)-5,11-dimethyl-2a,3,4a,10a1-tetrahydro-1H-2,4-dioxa-3,10a methanocyclohepta[bc]cyclopenta[jk]acenaphthylene-1,7(2a1H)-dione], the IC50 stood at 860 ± 50 nM in data set [2] (setting [8]); 67.2 ± 0.43 µM in data set [3] (setting [9]); 1.19 ± 0.08 µM in data set [4] (setting [10]); 5.47 ± 0.13 µM in data set [5] (setting [11]); 4.85 ± 0.42 µM in data set [6] (setting [12]). In addition, the “SI (selectivity index)” value in data set [3] was 56.5. Besides, in data set [3] (SI between Huh-7 and L-02, compared with HO), the “selectivity index relative to HO” value is 20 times.

For the compound `CC(=O)OC1OC2C3OC4c5c(C)cc(=O)cc6c5C(C42)C1(CC6)C3C` [Compound 5, (1S,3R,4aR,10aS,11S)-5,11-dimethyl-7-oxo-2a,2a1,3,4a,7,9,10,10a1-octahydro-1H-2,4-dioxa-3,10a-methanocyclohepta[bc]cyclopenta[jk]acenaphthylen-1-yl acetate], the IC50 in data set [2] (setting [8]) was more than 50000 nM; in data set [4] (setting [10]) it was more than 50 µM; in data set [5] (setting [11]), more than 50 µM; in data set [6] (setting [12]), more than 50 µM. Moreover, the “cytotoxic activities against four tested cancer cells (result in words)” value in data set [7] is given as “losing of cytotoxic activities”.

Consider `Cc1cc(=O)cc2c3c1C1OC4C5OC(O)C(CC2)(C4C)C3C15` [Compound 4, (1R,3R,4aR,10aS,11S)-1-hydroxy-5,11-dimethyl-2a,3,4a,9,10,10a1-hexahydro-1H-2,4-dioxa-3,10a-methanocyclohepta[bc]cyclopenta[jk]acenaphthylen-7(2a1H)-one], for which the half-maximal inhibitory concentration (IC50) in data set [2] (setting [8]) is more than 50000 nM; in data set [4] (setting [10]), more than 50 µM; in data set [5] (setting [11]) it was more than 50 µM; in data set [6] (setting [12]) it was more than 50 µM. In data set [7], the “cytotoxic activities against four tested cancer cells (result in words)” value was “losing of cytotoxic activities”.

Turning to `Cc1cc(=O)cc2c3c1C1OC4C5OC(=O)C(CC2O)(C4C)C3C15` [Compound 10, (3R,4aR,9S,10aS,11S)-9-hydroxy-5,11-dimethyl-2a,3,4a,9,10,10a1-hexahydro-1H-2,4-dioxa-3,10a-methanocyclohepta[bc]cyclopenta[jk]acenaphthylene-1,7(2a1H)-dione], the IC50 in data set [2] (MTT, 48 h, HCT-116 cells) stood at 2290 ± 270 nM; in data set [3] (setting [9]) it was 22.3 ± 1.11 µM; in data set [4] (MTT, 48 h, Huh-7 cells), 6.34 ± 0.32 µM; in data set [5] (MTT, 48 h, A549 cells) it was 8.25 ± 0.2 µM; in data set [6] (MTT, 48 h, A375 cells) it was 5.79 ± 1.26 µM. Further, the “SI (selectivity index)” value in data set [3] is 3.5.

As to `Cc1cc(=O)cc2c3c1[C@@H]1O[C@H]4[C@@H]5OC(=O)[C@](CC2)([C@@H]4C)[C@H]3[C@@H]51` [HO (1), Harringtonolide], the IC50 in data set [2] (Homo sapiens, HCT-116, 48 h) was determined as 610 ± 30 nM; in data set [3] (L02, 48 h) it was 3.46 ± 0.36 µM; in data set [4] (Homo sapiens, Huh-7, 48 h), 1.25 ± 0.08 µM; in data set [5] (Homo sapiens, A549, 48 h) it was 1.67 ± 0.23 µM; in data set [6] (Homo sapiens, A-375, 48 h), 1.34 ± 0.23 µM. Besides, the “SI (selectivity index)” value in data set [3] is 2.8.

(Values after publication PMC7961763, “Semi-Synthesis of Harringtonolide Derivatives and Their Antiproliferative Activity” (Molecules, 2021).)
